Test system: methane production in rumen fluid
Assay: Rumen in vitro (RIV) assay, methane production from rumen fluid incubations
Format: cell-based, cattle
Details: Bos taurus, read-out: RIV % methane reduction +/− SD
Method: The compounds of the present invention were initially screened for activity using an in vitro fully automated incubation system for the measurement of total gas production and gas composition (methane and hydrogen). The system used is described in detail in the paper by Muetzel et al. (2014; Animal Feed Science and Technology 196, 1-11). The system in this specification is referred to as the rumen in vitro system or RIV. The RIV system provides a relatively simple tool for determining the rate and production of methane and also whether the rate and production of methane is inhibited or reduced by a particular compound or feed. Rumen in vitro assays use rumen fluid from donor animals (typically either sheep or cattle) which is typically combined with a buffer and then incubated in sealed fermentation vessels at 39° C. for either 24 or 48 h. These assays systems have been well-characterised and used by the scientific community over the last two decades (Rymer et al. 2005). The system that has been used here to characterise the effects of inhibitors on methane production and gas production, and the formation of H2, was described by Muetzel et al. (2014). Rumen in vitro assay systems reflect what can occur in the rumen in vivo, but only short-term, due to their short incubation times (typically not exceeding 48 h) which is limited by its buffering capacity and the fact that it is a closed system. Stock solutions of inhibitors were re-suspended in dimethylformamide (DMF) at concentrations 1000-fold higher than the highest used for the assays. Any further dilutions were also prepared using DMF. The total amount of inhibitor solution added to the rumen fluid-buffer mixture (60 mL) was 60 μl. Incubations used 60 ml of medium containing 12 ml of filtered rumen fluid and 48 ml of buffer in serum bottles for 24-48 h, essentially as described by Muetzel et al. (2014). Two fistulated cattle were used as donor animals for rumen fluid and treatments were incubated in duplicate bottles. Sets of duplicate incubation vials that contained ryegrass (with rumen fluid-buffer mixture), and ryegrass with 30 μM bromoethanesulfonate (BES) were also incubated as negative and positive controls, respectively. One experiment consists of 2 replicates of an inhibitor at any one concentration run at the same time, and a run can contain up to 32 bottle, including positive (30 µM BES) and negative (no inhibitor added) controls. Compound 1, for example, was tested using the 60 mL rumen in vitro assay system at 50 μM, 10 μM, and 2 μM final concentrations and compared to a positive control with 30 µM BES.

SMILES | inhibition at 10 µM [%] | inhibition at 50 µM [%] | inhibition at 2 µM (2 μM) [%]
O=C(O)CCC(=O)N1N=C(c2ccc(-c3ccc(Cl)c(Cl)c3)cc2)CC1c1ccc2nccnc2c1 (stereo not drawn) [Compound 27, 4-(3-(3′,4′-Dichloro-[1,1′-biphenyl]-4-yl)-5-(quinoxalin-6-yl)-4,5-dihydro-1H-pyrazol-1-yl)-4-oxobutanoic acid] | 48.3 ± 7.5 | 92.1 ± 1.1 | 
O=C(O)CCC(=O)N1N=C(c2ccc(-c3cc(Cl)cc(Cl)c3)cc2)CC1c1ccc2nccnc2c1 (stereo not drawn) [Compound 28, 4-(3-(3′,5′-Dichloro-[1,1′-biphenyl]-4-yl)-5-(quinoxalin-6-yl)-4,5-dihydro-1H-pyrazol-1-yl)-4-oxobutanoic acid] | 84 ± 0.8 | 96.1 ± 0.1 | 8 ± 2.1
O=C(O)CCC(=O)N1N=C(c2ccc(-c3ccccc3)cn2)CC1c1ccc2nccnc2c1 (stereo not drawn) [Compound 29, 4-Oxo-4-(3-(5-phenylpyridin-2-yl)-5-(quinoxalin-6-yl)-4,5-dihydro-1H-pyrazol-1-yl)butanoic acid] |  | 33.3 ± 0.6 | 
O=C(O)CCC(=O)N1N=C(c2ccc(-c3cccnc3)cc2)CC1c1ccc2nccnc2c1 (stereo not drawn) [Compound 30, 4-Oxo-4-(3-(4-(pyridin-3-yl)phenyl)-5-(quinoxalin-6-yl)-4,5-dihydro-1H-pyrazol-1-yl)butanoic acid] |  | 9.3 ± 2.8 | 
O=C(O)CCC(=O)N1N=C(c2ccc3ccccc3c2)CC1c1ccc2nccnc2c1 (stereo not drawn) [Compound 31, 4-(3-(Naphthalen-2-yl)-5-(quinoxalin-6-yl)-4,5-dihydro-1H-pyrazol-1-yl)-4-oxobutanoic acid] |  | 56.6 ± 6.9 | 
O=C(O)CCC(=O)N1N=C(c2ccc(Cl)cc2)CC1c1cnc2ccccc2n1 (stereo not drawn) [Compound 32, 4-(3-(4-Chlorophenyl)-5-(quinoxalin-2-yl)-4,5-dihydro-1H-pyrazol-1-yl)-4-oxobutanoic acid] | < 5 | 81 ± 2 | 
O=C(O)CCC(=O)N1N=C(c2ccc(Cl)cc2)CC1c1cccc2nccnc12 (stereo not drawn) [Compound 33, 4-(3-(4-Chlorophenyl)-5-(quinoxalin-5-yl)-4,5-dihydro-1H-pyrazol-1-yl)-4-oxobutanoic acid] |  | 18.4 ± 3.7 | 
O=C(O)CCC(=O)N1N=C(c2ccc(Cl)cc2)CC1c1ccc2cccnc2c1 (stereo not drawn) [Compound 34, 4-(3-(4-Chlorophenyl)-5-(quinolin-7-yl)-4,5-dihydro-1H-pyrazol-1-yl)-4-oxobutanoic acid] |  | 22 ± 2.1 | 
O=C(O)CCC(=O)N1N=C(c2ccc(Cl)cc2)CC1c1ccc2nonc2c1 (stereo not drawn) [Compound 35, 4-(5-(Benzo[c][1,2,5]oxadiazol-5-yl)-3-(4-chlorophenyl)-4,5-dihydro-1H-pyrazol-1-yl)-4-oxobutanoic acid] | 43.6 ± 6.6 | 91.3 ± 2.1 | 
O=C(O)CCC(=O)N1N=C(c2ccc(Cl)cc2)CC1c1ccc2nsnc2c1 (stereo not drawn) [Compound 36, 4-(5-(Benzo[c][1,2,5]thiadiazol-5-yl)-3-(4-chlorophenyl)-4,5-dihydro-1H-pyrazol-1-yl)-4-oxobutanoic acid] | 33.4 ± 2.3 | 91.3 ± 0.2 | 
O=C(O)CCC(=O)N1N=C(c2ccc(Cl)cc2)CC1c1ccc2c(c1)OCO2 (stereo not drawn) [Compound 37, 4-(5-(benzo[d][1,3]dioxol-5-yl)-3-(4-chlorophenyl)-4,5-dihydro-1H-pyrazol-1-yl)-4-oxobutanoic acid] |  | 15.6 ± 2 | 
O=C(O)CCC(=O)N1N=C(c2ccc(Cl)cc2)CC1c1ccc2c(c1)OC(F)(F)O2 (stereo not drawn) [Compound 38, 4-(3-(4-Chlorophenyl)-5-(2,2-difluorobenzo[d][1,3]dioxol-5-yl)-4,5-dihydro-1H-pyrazol-1-yl)-4-oxobutanoic acid] | 55.8 ± 1.8 | 93.4 ± 0.5 | 
O=C(O)CCC(=O)N1N=C(c2ccc(Cl)cc2)CC1c1ccc2c(c1)OCCO2 (stereo not drawn) [Compound 39, 4-(3-(4-Chlorophenyl)-5-(2,3-dihydrobenzo[b][1,4]dioxin-6-yl)-4,5-dihydro-1H-pyrazol-1-yl)-4-oxobutanoic acid] | 20 ± 5.1 | 79.2 | 

From patent US20260053171A1, “METHANOGEN INHIBITORS” (AGRIZERONZ LIMITED PARTNERSHIP, priority 2022, published 2026)
